The test concerns gelatin. The experiment in a line: Collagenase cleavage of patterned gelatin on biosensor, BIND imaging. The note with it: 1.5 mg/ml collagenase; gelatin versus regions without gelatin (rabbit IgG). In kind it is biochemical. Here is the method: A pattern of gelatin (1 mg/ml, Sigma) was applied to a biosensor with a micropipette tip in the shape of the letters “SRU.” The gelatin was allowed to incubate on the biosensor surface for about 60 minutes before a thorough rinse with water. Next, the entire biosensor surface was exposed to a 1 mg/ml solution of rabbit IgG (Sigma) that attached a uniform thin layer of protein across the biosensor so that the peak wavelength value of the biosensor would be roughly equivalent in all locations. After a second rinse in water, the entire biosensor was exposed to a 1.5 mg/ml solution of collagenase, a specific binding partner, for about 80 minutes. The collagenase is an enzyme that selectively cleaves gelatin, thus selectively removing protein from the surface only in regions where the gelatin was applied. […] As a consequence of this selective interaction, an image is measured where the word “SRU” appears as a region with lower peak wavelength value compared to surrounding regions, as shown in FIG. 10.

Entries after “also recorded” stand apart in the source; their conditions may differ.

collagenase: the “peak wavelength value change in gelatin regions after collagenase” value is given as “peak wavelength value in the gelatin regions is reduced relative to the regions without gelatin; also recorded: peak wavelength value in the gelatin reaction surfaces is reduced relative to the reference surfaces without gelatin”.

The values are drawn from patent US7927789B1, “Self-referencing biodetection method and patterned bioassays” (SRU Biosystems, Inc., priority 2002, dated 2011).
